Patent US12661342B2, “Heteroaryl compounds and therapeutic uses thereof in conditions associated with the alteration of the activity of beta-glucocerebrosidase” (GT GAIN THERAPEUTICS SA, priority 2019, dated 2026)

molecular target: T1, β-glucocerebrosidase (Homo sapiens, UniProt P04062, L483P); assay: Enhancement of β-glucocerebrosidase activity measured in Gaucher disease fibroblasts (4-MU-β-D-glucopyranoside substrate, intact cells); type: cell-based; parameters: key: Increase in comparison with non-treated of >2.0 fold is shown as A; Increase in comparison with non-treated of >1.7-2.0 fold is shown as B; Increase in comparison with non-treated of 1.2-1.7 fold is shown as C; D means that no increase compared with non-treated cells was detected in this method; details: GBA fibroblasts bearing L444P (GM08760A, homozygous p.L444P); compound at concentrations between 6 and 50 μM; 4 days incubation
T1 construct: host or cells: human Gaucher disease patient fibroblasts GM08760A
T1 sequence (P04062 40-536 L483P): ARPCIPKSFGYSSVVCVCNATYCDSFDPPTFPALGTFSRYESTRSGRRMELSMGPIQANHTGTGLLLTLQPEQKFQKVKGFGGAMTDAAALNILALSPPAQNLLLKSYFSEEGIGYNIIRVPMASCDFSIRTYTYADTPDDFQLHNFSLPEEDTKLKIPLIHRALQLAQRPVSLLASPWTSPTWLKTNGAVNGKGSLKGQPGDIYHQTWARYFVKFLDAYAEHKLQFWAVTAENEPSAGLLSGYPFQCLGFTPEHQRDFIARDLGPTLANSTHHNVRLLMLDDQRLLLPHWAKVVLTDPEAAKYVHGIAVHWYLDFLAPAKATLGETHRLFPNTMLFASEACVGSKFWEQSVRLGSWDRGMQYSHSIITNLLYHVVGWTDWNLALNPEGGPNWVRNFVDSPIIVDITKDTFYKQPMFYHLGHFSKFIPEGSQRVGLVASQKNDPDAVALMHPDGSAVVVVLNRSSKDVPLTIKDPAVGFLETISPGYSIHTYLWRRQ
Description: Human fibroblasts from a patient with Gaucher disease homozygous for p.L444P mutation (GM08760A) were purchased from Coriell Institute for Medical Research (Camden, NJ, USA).
Fibroblasts were seeded at 5×10^3 cells per well in 96-well cell culture plates (Corning, NY, USA) in Dulbecco's Modified Eagle's Media (DMEM) supplemented with 10% of fetal bovine serum (FBS), 1% penicillin/streptomycin (P/S) (Thermo Fisher Scientific, Waltham, MA, USA) and grown at 37° C., 5% CO2 overnight for cell attachment. Subsequently, cells were incubated in the absence or presence of the compounds at the desired concentration for 4 days. After incubation, cells were washed twice with phosphate-buffered saline (PBS) and enzyme activity assay was performed.
β-glucocerebrosidase activity in intact cultured cells was measured by using 4-methylumbelliferyl-β-D-glucopyranoside substrate (Apollo Scientific, UK). Briefly, cells were incubated with 4-MU-β-D-glucopyranoside in 0.1 M acetate buffer pH=4 at 37° C. for 1 hour. The reaction was stopped by adding 200 μL at 100 mM glycine-NaOH pH=10.7. The liberated 4-MU was measured on a GloMax Discover plate reader (Promega, Madison, WI, USA) with and excitation at 340 nm and emission at 460 nm. Enzyme activities were expressed in treated cells as X-fold increase in comparison with non-treated cells (X=1 represents no enhancement).
The capacity of the compounds of the disclosure to produce an increase in enzyme activity in GBA fibroblasts bearing L444P at concentrations between 6 and 50 μM is denoted as follows: • Increase in comparison with non-treated of >2.0 fold is shown as A • Increase in comparison with non-treated of >1.7-2.0 fold is shown as B • Increase in comparison with non-treated of 1.2-1.7 fold is shown as C • D means that no increase compared with non-treated cells was detected in this method • ND means “not determined”

Structure (SMILES) | Range: increase in enzyme activity in comparison with non-treated cells (Enzyme activity assay for exemplified compounds)
Nc1cc(C(=O)N2CCN(c3ccccc3)CC2)nc(Nc2ccccc2O)n1 [Example 1, (6-Amino-2-((2-hydroxyphenyl)amino)pyrimidin-4-yl)(4-phenylpiperazin-1-yl)methanone] | C (Increase in comparison with non-treated of 1.2-1.7 fold is shown as C)
COc1cccc(Nc2nc(N)cc(C(=O)N3CCN(c4ccccc4)CC3)n2)c1 [Example 2, (6-Amino-2-((3-methoxyphenyl)amino)pyrimidin-4-yl)(4-phenylpiperazin-1-yl)methanone] | C (Increase in comparison with non-treated of 1.2-1.7 fold is shown as C)
Cc1ccc(Nc2nc(N)cc(C(=O)N3CCN(c4ccccc4)CC3)n2)cc1 [Example 3, (6-Amino-2-(p-tolylamino)pyrimidin-4-yl)(4-phenylpiperazin-1-yl)methanone] | C (Increase in comparison with non-treated of 1.2-1.7 fold is shown as C)
CN(Cc1ccccc1)C(=O)c1cc(N)nc(Nc2ccccc2O)n1 [Example 4, 6-Amino-N-benzyl-2-((2-hydroxyphenyl)amino)-N-methylpyrimidine-4-carboxamide] | C (Increase in comparison with non-treated of 1.2-1.7 fold is shown as C)
CN(C(=O)c1cc(N)nc(Nc2ccccc2O)n1)c1ccccc1 [Example 5, 6-Amino-2-((2-hydroxyphenyl)amino)-N-methyl-N-phenylpyrimidine-4-carboxamide] | C (Increase in comparison with non-treated of 1.2-1.7 fold is shown as C)
Cc1ccc(Nc2nc(N)cc(C(=O)N(C)c3ccccc3)n2)cc1 [Example 6, 6-Amino-N-methyl-N-phenyl-2-(p-tolylamino)pyrimidine-4-carboxamide] | D
COc1cccc(Nc2nc(N)cc(C(=O)N(C)c3ccccc3)n2)c1 [Example 7, 6-Amino-2-((3-methoxyphenyl)amino)-N-methyl-N-phenylpyrimidine-4-carboxamide] | D
Nc1cc(C(=O)N2Cc3ccccc3C2)nc(Nc2ccccc2O)n1 [Example 8, (6-Amino-2-((2-hydroxyphenyl)amino)pyrimidin-4-yl)(isoindolin-2-yl)methanone] | C (Increase in comparison with non-treated of 1.2-1.7 fold is shown as C)
CN(C(=O)c1cc(N)nc(Nc2ccccc2O)n1)C1Cc2ccccc2C1 [Example 10, 6-Amino-N-(2,3-dihydro-1H-inden-2-yl)-2-((2-hydroxyphenyl)amino)-N-methylpyrimidine-4-carboxamide] | C (Increase in comparison with non-treated of 1.2-1.7 fold is shown as C)
Nc1cc(C(=O)Nc2ccccc2)nc(Nc2ccccc2O)n1 [Example 11, 6-Amino-2-((2-hydroxyphenyl)amino)-N-phenylpyrimidine-4-carboxamide] | B (Increase in comparison with non-treated of >1.7-2.0 fold is shown as B)
Nc1cc(C(=O)NC2CCc3ccccc3C2)nc(Nc2ccccc2O)n1 (centres unmarked) [Example 12, 6-Amino-2-((2-hydroxyphenyl)amino)-N-(1,2,3,4-tetrahydronaphthalen-2-yl)pyrimidine-4-carboxamide] | B (Increase in comparison with non-treated of >1.7-2.0 fold is shown as B)
Nc1cc(C(=O)NC2Cc3ccccc3C2)nc(Nc2ccccc2O)n1 [Example 13, 6-Amino-N-(2,3-dihydro-1H-inden-2-yl)-2-((2-hydroxyphenyl)amino)pyrimidine-4-carboxamide] | C (Increase in comparison with non-treated of 1.2-1.7 fold is shown as C)
Nc1cc(C(=O)N2CCN(c3ccccc3)CC2)nc(N[C@H]2CCCC[C@@H]2O)n1 [Example 14, (6-Amino-2-(((1S,2S)-2-hydroxycyclohexyl)amino)pyrimidin-4-yl)(4-phenylpiperazin-1-yl)methanone] | D
CN(Cc1ccccc1)C(=O)c1cc(N)nc(N[C@H]2CCCC[C@@H]2O)n1 [Example 15, 6-Amino-N-benzyl-2-(((1S,2S)-2-hydroxycyclohexyl)amino)-N-methylpyrimidine-4-carboxamide] | D
Nc1nc(Nc2cccc(Br)c2)nc(C(=O)N2CCN(c3ccccc3)CC2)n1 [Example 16, (4-Amino-6-((3-bromophenyl)amino)-1,3,5-triazin-2-yl)(4-phenylpiperazin-1-yl)methanone] | C (Increase in comparison with non-treated of 1.2-1.7 fold is shown as C)
CN(Cc1ccccc1)C(=O)c1nc(N)nc(Nc2cccc(Br)c2)n1 [Example 17, 4-Amino-N-benzyl-6-((3-bromophenyl)amino)-N-methyl-1,3,5-triazine-2-carboxamide] | D
CN(C(=O)c1nc(N)nc(Nc2cccc(Br)c2)n1)c1ccccc1 [Example 18, 4-Amino-6-((3-bromophenyl)amino)-N-methyl-N-phenyl-1,3,5-triazine-2-carboxamide] | D
Nc1nc(Nc2cccc(Br)c2)nc(C(=O)NC2CCc3ccccc3C2)n1 (centres unmarked) [Example 19, 4-Amino-6-((3-bromophenyl)amino)-N-(1,2,3,4-tetrahydronaphthalen-2-yl)-1,3,5-triazine-2-carboxamide] | C (Increase in comparison with non-treated of 1.2-1.7 fold is shown as C)
COc1ccccc1Nc1nc(N)nc(C(=O)NC2CCc3ccccc3C2)n1 (centres unmarked) [Example 20, 4-Amino-6-((2-methoxyphenyl)amino)-N-(1,2,3,4-tetrahydronaphthalen-2-yl)-1,3,5-triazine-2-carboxamide] | C (Increase in comparison with non-treated of 1.2-1.7 fold is shown as C)
Cc1ccc(Nc2nc(N)cc(C(=O)N(C)Cc3ccccc3)n2)cc1 [Example 21, 6-Amino-N-benzyl-N-methyl-2-(p-tolylamino)pyrimidine-4-carboxamide] | C (Increase in comparison with non-treated of 1.2-1.7 fold is shown as C)
Cc1ccc(Nc2nc(N)cc(C(=O)NC3CCc4ccccc4C3)n2)cc1 (centres unmarked) [Example 22, 6-Amino-N-(1,2,3,4-tetrahydronaphthalen-2-yl)-2-(p-tolylamino)pyrimidine-4-carboxamide] | A (Increase in comparison with non-treated of >2.0 fold is shown as A)
COc1cccc(Nc2nc(N)nc3c2CCN(Cc2ccccc2)C3)c1 [Example 23, 7-Benzyl-N4-(3-methoxyphenyl)-5,6,7,8-tetrahydropyrido[3,4-d]pyrimidine-2,4-diamine] | C (Increase in comparison with non-treated of 1.2-1.7 fold is shown as C)
COc1ccccc1Nc1nc(N)nc2c1CCN(Cc1ccccc1)C2 [Example 24, 7-Benzyl-N4-(2-methoxyphenyl)-5,6,7,8-tetrahydropyrido[3,4-d]pyrimidine-2,4-diamine] | C (Increase in comparison with non-treated of 1.2-1.7 fold is shown as C)
